{"source": "patent US10590166B2", "about": "“Peptides useable for treating cancer” (Allegro Pharmaceuticals, LLC, priority 2009, dated 2020)", "molecules": {"B1": {"name": "ranibizumab: recombinant humanized IgG1 kappa isotype monoclonal antibody fragment (antibody, chains of the INN, looked up, V domains shown)", "VH": "EVQLVESGGGLVQPGGSLRLSCAASGYDFTHYGMNWVRQAPGKGLEWVGWINTYTGEPTYAADFKRRFTFSLDTSKSTAYLQMNSLRAEDTAVYYCAKYPYYYGTSHWYFDVWGQGTLVTVSS", "VL": "DIQLTQSPSSLSASVGDRVTITCSASQDISNYLNWYQQKPGKAPKVLIYFTSSLHSGVPSRFSGSGSGTDFTLTISSLQPEDFATYYCQQYSTVPWTFGQGTKVEIK", "modifications": "Fab", "notes": "recombinant humanized IgG1 kappa isotype monoclonal antibody fragment"}}, "key": {"[1]": {"tested_on": "human umbilical vein endothelial cells (HUVEC)", "test": "wound-healing assay with HUVEC on fibronectin coated surface", "format": "cell-based", "procedure": "To test the anti-adhesive properties of RGCysteic Acid peptides in vitro, a wound-healing assay was performed with human umbilical vein endothelial cells (HUVEC). HUVEC were seeded and allowed to grow to a confluent monolayer on a fibronectin coated surface. A wound (a scratch rift) was created by dragging a small pipette tip across the HUVEC monolayer. The cells were then incubated in fresh growth medium containing the RGCysteic Acid peptide (Compound 1; 10 mM), and the wound area was imaged in five different fields at various time points (0, 4, 8, 12, 16, 20, 24 hours) to determine the kinetics of wound closure. The level of wound closure was quantified by determining the fraction of the original wound area that was re-occupied by HUVEC through cellular adhesion, migration and proliferation.\nIn control studies, the following peptides were used in place of RGCysteic Acid (Compound 1): cyclic-RGD peptide (1 mM), positive control) and RGE peptide (1 mM, negative control).\nThe results are shown as a percentage of the original area. The error bars correspond to the standard deviation in wound size across 2-6 independent trials."}, "[2]": {"tested_on": "New Zealand Rabbits", "test": "Ocular toxicity of intravitreal Compound 1 with and without urea (Table A)", "format": "in vivo", "details": "single intravitreal injection, 24 hour follow up, 8 eyes per group"}, "[3]": {"tested_on": "rho/VEGF mice", "test": "Subretinal neovascularization in transgenic rho/VEGF mice expressing human VEGF", "format": "in vivo", "details": "10 μg, single intraocular injection, seven days post-dose, 3 animals", "procedure": "Transgenic mice in which the rhodopsin promoter drives expression of human VEGF in photoreceptors (rho/VEGF mice) were randomized into separate treatment groups and studies were performed to provide the following comparisons:\nPretreatment measurements of the area of subretinal neovascularization were made on each animal using image analysis by a masked observer. Each animal received its designated treatment in a single intraocular injection. Seven days post-dose, measurements of the area of subretinal neovascularization were again made and compared to the pre-dose measurements to determine the change in subretinal neovascularization area. Also, the animals were sacrificed and the retinas were dissected, immunostained with GSA lectin and examined by fluorescence microscopy."}}}
{"molecule": "CC(C)[C@H]1C(=O)N[C@@H](CCCN=C(N)N)C(=O)NCC(=O)N[C@@H](CC(=O)O)C(=O)N[C@H](Cc2ccccc2)C(=O)N1C", "note": "[Cyclic RGD, N-methylated cyclic-RGDf-N(Me)V, reference compound]", "values": [{"measurement": "inhibition of cell adhesion", "setting": "[1]; HUVEC wound healing model, in 12 hours", "value": 40, "unit": "%"}, {"measurement": "inhibition of HUVEC wound healing", "setting": "[1]; after 24 hours, Compound 1 10 mM, control peptides 1 mM", "value": 45, "unit": "%"}]}
{"molecule": "NC(N)=O", "note": "[12% Urea solution, Urea, reference compound]", "values": [{"measurement": "Total PVD", "setting": "[2]", "value": 0, "unit": "% Total PVD"}, {"measurement": "Vitreous liquefaction", "setting": "[2]", "value": "No liquefaction"}]}
{"molecule": "B1", "values": [{"measurement": "greater reduction in subretinal neovascularization area than control animals (Phosphate Buffered Saline)", "setting": "[3]", "value": 38.96, "unit": "%"}]}
